# Measurements as given in the supplement of paper PMC10307832.
# Columns and labels:
# Test in all cases: relative viability (nuclei count vs DMSO), 5 days (fraction); higher = more cells survive
# EHT 1864 + Vorinostat = compound: C1COCCN1CC2=CC(=O)C(=CO2)OCCCCCSC3=C4C=CC(=CC4=NC=C3)C(F)(F)F [EHT 1864] + O=C(CCCCCCC(=O)Nc1ccccc1)NO [Vorinostat] (partner 1 µM)
# How it was run: (§1)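 Lung cancer cell lines in 1536-well plates got either a single drug or a fixed anchor-drug dose together with five library-drug doses (not always all listed) in √10 steps, by pin tool, on the day after seeding. Nuclei were counted after 5 days, and relative viability is the treated-to-vehicle ratio of nuclei counts. Values are medians of duplicate plates.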
# EHT 1864 + Pemetrexed = compound: C1COCCN1CC2=CC(=O)C(=CO2)OCCCCCSC3=C4C=CC(=CC4=NC=C3)C(F)(F)F [EHT 1864] + Nc1nc2[nH]cc(CCc3ccc(C(=O)N[C@@H](CCC(=O)O)C(=O)O)cc3)c2c(=O)[nH]1 [Pemetrexed] (partner 0.2 µM)
# How it was run: as §1
# EHT 1864 + Dasatinib = compound: C1COCCN1CC2=CC(=O)C(=CO2)OCCCCCSC3=C4C=CC(=CC4=NC=C3)C(F)(F)F [EHT 1864] + Cc1nc(Nc2ncc(C(=O)Nc3c(C)cccc3Cl)s2)cc(N2CCN(CCO)CC2)n1 [Dasatinib] (partner 0.075 µM)
# How it was run: as §1
# EHT 1864 + Palbociclib = compound: C1COCCN1CC2=CC(=O)C(=CO2)OCCCCCSC3=C4C=CC(=CC4=NC=C3)C(F)(F)F [EHT 1864] + CC(=O)c1c(C)c2cnc(Nc3ccc(N4CCNCC4)cn3)nc2n(C2CCCC2)c1=O [Palbociclib] (partner 0.5 µM)
# How it was run: as §1
Cell Line,relative viability (EHT 1864 + Vorinostat; first compound 0.04 µM),relative viability (EHT 1864 + Vorinostat; first compound 0.4 µM),relative viability (EHT 1864 + Vorinostat; first compound 1.265 µM),relative viability (EHT 1864 + Vorinostat; first compound 4 µM),relative viability (EHT 1864 + Pemetrexed; first compound 0.04 µM),relative viability (EHT 1864 + Pemetrexed; first compound 0.4 µM),relative viability (EHT 1864 + Pemetrexed; first compound 1.265 µM),relative viability (EHT 1864 + Pemetrexed; first compound 4 µM),relative viability (EHT 1864 + Dasatinib; first compound 0.04 µM),relative viability (EHT 1864 + Dasatinib; first compound 0.4 µM),relative viability (EHT 1864 + Dasatinib; first compound 1.265 µM),relative viability (EHT 1864 + Dasatinib; first compound 4 µM),relative viability (EHT 1864 + Palbociclib; first compound 0.04 µM),relative viability (EHT 1864 + Palbociclib; first compound 0.4 µM),relative viability (EHT 1864 + Palbociclib; first compound 1.265 µM),relative viability (EHT 1864 + Palbociclib; first compound 4 µM),relative viability (EHT 1864 + Vorinostat; first compound 0.1265 µM),relative viability (EHT 1864 + Pemetrexed; first compound 0.1265 µM),relative viability (EHT 1864 + Dasatinib; first compound 0.1265 µM),relative viability (EHT 1864 + Palbociclib; first compound 0.1265 µM)
NCI-H1915,0.501,0.517,0.478,0.564,0.474,0.52,0.5,0.477,0.309,0.296,0.338,0.282,0.554,0.53,0.503,0.516,–,–,–,–
NCI-H1944,0.528,0.595,0.514,0.661,0.669,0.64,0.58,0.693,0.238,0.208,0.228,0.21,0.327,0.353,0.311,0.332,–,–,–,–
NCI-H1975,0.726,0.677,0.654,0.644,0.271,0.274,0.291,0.285,0.361,0.426,–,0.331,0.641,0.4,0.348,0.552,0.673,0.28,0.292,0.647
NCI-H1993,0.896,0.912,0.806,0.863,0.58,0.595,0.623,0.556,0.841,0.498,0.613,0.639,0.693,0.682,0.664,0.741,–,–,–,–
NCI-H2009,0.69,0.72,0.627,0.612,1.01,1.01,0.965,0.809,0.259,0.323,0.241,0.251,0.228,0.193,0.24,0.173,0.698,0.95,0.258,0.209
